{"source": "paper PMC8037814", "about": "“Polymorphic Characterization, Pharmacokinetics, and Anti-Inflammatory Activity of Ginsenoside Compound K Polymorphs” (Molecules, 2021)", "assay": "Pharmacokinetics after intravenous administration of CK in rats (10 mg/kg)", "format": "in vivo, Sprague-Dawley rats", "settings": "i.v. 10 mg/kg; for half-life: read-out: t1/2z (converted)", "experimental": "All samples were analyzed with a triple quadrupole LC-MS/MS (API 4000 LC-MS/MS, AB Sciex, Framingham, MA, USA) coupled with an Agilent 1200 HPLC system (Agilent Technologies, Palo Alto, CA, USA). The MS was equipped with an electrospray system (ESI). The N2 gas temperature and ion-spray voltage were set to 550 °C and 4.5 kV, respectively. CK was measured in multiple reaction monitoring (MRM) mode using a negative electrospray ionization source at m/z 667.4 → 621.2 for CK (CID 25.6 v) and m/z 271.2 → 228.8 for internal standard (IS, (E)-5-(4-fluorostyryl)-2-isopropylbenzene-1,3-diol, Welichem Biotech Inc., Wayburne Drive Burnaby, BC, Canada) (CID 28.3 v) with a dwell time of 0.1 s.\nRats were divided randomly into 5 groups of six animals each (sex in half) and given 7 days to acclimatize to the facility before the experiments began. The four forms of CK were suspended in 0.5% sodium carboxymethyl cellulose (CMC-Na) solution and orally administered to rats at a dose of 20 mg/kg. A CK solution in a mixed solvent of dimethyl sulfoxide (DMSO)/castor oil/physiologic saline (3:5:92, v/v) was intravenously administered to the remaining group via the tail vein at a dose of 10 mg/kg. Blood samples were collected by retro-orbital puncture at the following times: 0.167, 0.333, 0.667, 1, 2, 3, 4, 6, 9, 12, and 24 h for the oral administration, and at 0.0083, 0.05, 0.133, 0.25, 0.5, 1, 2, 4, 6, and 9 h for the intravenous administration. Plasma samples were obtained by centrifuging a heparinized blood tube at 4000 rpm for 5 min and then stored at −70 °C until analysis.\nThe procedure for drug extraction from plasma samples was as follows: 0.2 mL acetonitrile, 0.2 mL plasma sample, and 10 μL IS (1 µg/mL) were added into a 1.5 mL Eppendorf-type tube. This mixture was vortexed for 1 min and then treated with 0.8 mL of methyl tert-butyl ether (MTBE) to precipitate the plasma proteins. After a mechanical vortex for 1 min and subsequent centrifugation (4000 rpm, 5 min), 0.8 mL of the supernatant was transferred and blow-dried with N2 at 40 °C in a water bath. Finally, the residue was dissolved in 120 μL of mobile phase, and then 10 μL was subjected to HPLC for analysis. […] Intra- and inter-day precision and accuracy never exceeded 15% by analyzing six replicate samples.\nThe CK pharmacokinetic parameters in rats, including the area under the curve (AUC(0–t) and AUC(0–∞)), mean residence time (MRT(0–t) and MRT(0–∞)), maximum concentration (Cmax), time to maximum concentration (Tmax), half-life (t1/2), apparent distribution volume (V), and total plasma clearance (CL), were derived from plasma concentration-time curves by using non-compartmental analysis (NCA) with DAS 2.0 software (Drug And Statistics, Mathematical Pharmacology Professional Committee of China, Shanghai, China). The absolute bioavailability (Fabs) was calculated from the dose-adjusted ratio of AUCp.o. to AUCi.v.. One-way analysis of variance (ANOVA) by SPSS 11.5 (SPSS Inc., Chicago, IL, USA) was conducted to compare the primary PK parameters.", "key": {"[1]": {"settings": "female rats, individual rats 1-3, 10 mg/kg"}, "[2]": {"settings": "female, Sprague-Dawley, rat, plasma, iv, 10 mg/kg, female rats, Mean±SD"}}, "note": "“And” between values parts separate entries of the source, which are not always exact repeats. Identical values can stand only once. Like-named read-outs stand apart in the source and are kept apart here."}
{"molecule": "CC(C)=CCCC(C)(OC1OC(CO)C(O)C(O)C1O)C1CCC2(C)C1C(O)CC1C3(C)CCC(O)C(C)(C)C3CCC12C", "note": "[CK, 20-O-β-D-glucopyranosyl-20(S)-protopanaxadiol]", "values": [{"measurement": "Plasma concentrations of CK", "setting": "female rats, 0.5 min, individual rats 1-3, 10 mg/kg", "value": "54838.90 ng/mL and 127905.96 ng/mL and 48362.17 ng/mL"}, {"measurement": "Plasma concentrations of CK", "setting": "female rats, 0.05 h, individual rats 1-3, 10 mg/kg", "value": "15185.26 ng/mL and 25786.82 ng/mL and 6748.70 ng/mL"}, {"measurement": "Plasma concentrations of CK", "setting": "female rats, 8 min, individual rats 1-3, 10 mg/kg", "value": "1631.02 ng/mL and 4937.02 ng/mL and 980.77 ng/mL"}, {"measurement": "Plasma concentrations of CK", "setting": "female rats, 0.25 h, individual rats 1-3, 10 mg/kg", "value": "672.83 ng/mL and 1554.81 ng/mL and 553.32 ng/mL"}, {"measurement": "Plasma concentrations of CK", "setting": "female rats, 0.5 h, individual rats 1-3, 10 mg/kg", "value": "411.75 ng/mL and 359.74 ng/mL"}, {"measurement": "Plasma concentrations of CK", "setting": "female rats, 1 h, individual rats 1-3, 10 mg/kg", "value": "117.01 ng/mL and 136.73 ng/mL and 243.80 ng/mL"}, {"measurement": "Plasma concentrations of CK", "setting": "female rats, 2 h, individual rats 1-3, 10 mg/kg", "value": "136.06 ng/mL and 82.52 ng/mL"}, {"measurement": "Plasma concentrations of CK", "setting": "female rats, 4 h, individual rats 1-3, 10 mg/kg", "value": "63.54 ng/mL and 48.16 ng/mL and 99.22 ng/mL"}, {"measurement": "Plasma concentrations of CK", "setting": "female rats, 6 h, individual rats 1-3, 10 mg/kg", "value": "27.72 ng/mL and 22.95 ng/mL and 47.61 ng/mL"}, {"measurement": "Plasma concentrations of CK", "setting": "female rats, 9 h, individual rats 1-3, 10 mg/kg", "value": "27.31 ng/mL and 14.83 ng/mL and 34.93 ng/mL"}, {"measurement": "CLz/F", "setting": "female rats, Mean±SD", "value": "92.7 ± 34.3", "unit": "mL/min/kg"}, {"measurement": "Vz/F", "setting": "female rats, Mean±SD", "value": "17.75 ± 7.49", "unit": "L/kg"}, {"measurement": "AUC(0-t)", "setting": "[1]", "value": "3164.67 ng·h/mL and 6150.84 ng·h/mL and 2722.08 ng·h/mL"}, {"measurement": "AUC(0-∞)", "setting": "[1]", "value": "3206.10 ng·h/mL and 6173.20 ng·h/mL and 2779.29 ng·h/mL"}, {"measurement": "CLz/F", "setting": "[1]", "value": "104 mL/min/kg and 54 mL/min/kg and 120 mL/min/kg"}, {"measurement": "MRT(0-t)", "setting": "[1]", "value": "34.2 min and 15.6 min and 60 min"}, {"measurement": "MRT(0-∞)", "setting": "[1]", "value": "56.4 min and 20.4 min and 86.4 min"}, {"measurement": "Vz/F", "setting": "[1]", "value": "21.99 L/kg and 9.10 L/kg and 22.17 L/kg"}, {"measurement": "t1/2z", "setting": "[1]", "value": "117 min and 128 min"}, {"measurement": "concentration at 0.5 min", "setting": "female, Sprague-Dawley, rat, plasma, iv, 10 mg/kg, female rats, 0.5 min, Mean±SD, read-out: Plasma concentrations of CK", "value": "77000 ± 44200", "unit": "ng/mL"}, {"measurement": "concentration at 0.05 h", "setting": "female, Sprague-Dawley, rat, plasma, iv, 10 mg/kg, female rats, 0.05 h, Mean±SD, read-out: Plasma concentrations of CK", "value": "15900 ± 9540", "unit": "ng/mL"}, {"measurement": "concentration at 8 min", "setting": "female, Sprague-Dawley, rat, plasma, iv, 10 mg/kg, female rats, 8 min, Mean±SD, read-out: Plasma concentrations of CK", "value": "2520 ± 2120", "unit": "ng/mL"}, {"measurement": "concentration at 0.25 h", "setting": "female, Sprague-Dawley, rat, plasma, iv, 10 mg/kg, female rats, 0.25 h, Mean±SD, read-out: Plasma concentrations of CK", "value": "927 ± 547", "unit": "ng/mL"}, {"measurement": "concentration at 0.5 h", "setting": "female, Sprague-Dawley, rat, plasma, iv, 10 mg/kg, female rats, 0.5 h, Mean±SD, read-out: Plasma concentrations of CK", "value": "354 ± 60.4", "unit": "ng/mL"}, {"measurement": "concentration at 0.5 h", "setting": "female, Sprague-Dawley, rat, plasma, iv, 10 mg/kg, female rats, 0.5 h, individual rats 1-3, read-out: Plasma concentrations of CK", "value": 291, "unit": "ng/mL"}, {"measurement": "concentration at 1 h", "setting": "female, Sprague-Dawley, rat, plasma, iv, 10 mg/kg, female rats, 1 h, Mean±SD, read-out: Plasma concentrations of CK", "value": "166 ± 68.2", "unit": "ng/mL"}, {"measurement": "concentration at 2 h", "setting": "female, Sprague-Dawley, rat, plasma, iv, 10 mg/kg, female rats, 2 h, Mean±SD, read-out: Plasma concentrations of CK", "value": "102 ± 29.8", "unit": "ng/mL"}, {"measurement": "concentration at 2 h", "setting": "female, Sprague-Dawley, rat, plasma, iv, 10 mg/kg, female rats, 2 h, individual rats 1-3, read-out: Plasma concentrations of CK", "value": 86.6, "unit": "ng/mL"}, {"measurement": "concentration at 4 h", "setting": "female, Sprague-Dawley, rat, plasma, iv, 10 mg/kg, female rats, 4 h, Mean±SD, read-out: Plasma concentrations of CK", "value": "70.3 ± 26.2", "unit": "ng/mL"}, {"measurement": "concentration at 6 h", "setting": "female, Sprague-Dawley, rat, plasma, iv, 10 mg/kg, female rats, 6 h, Mean±SD, read-out: Plasma concentrations of CK", "value": "32.8 ± 13.1", "unit": "ng/mL"}, {"measurement": "concentration at 9 h", "setting": "female, Sprague-Dawley, rat, plasma, iv, 10 mg/kg, female rats, 9 h, Mean±SD, read-out: Plasma concentrations of CK", "value": "25.7 ± 10.1", "unit": "ng/mL"}, {"measurement": "AUC(0-inf)", "setting": "[2]", "value": "4050 ± 1850", "unit": "ng·h/mL"}, {"measurement": "AUC(0-t)", "setting": "female, Sprague-Dawley, rat, plasma, iv, 10 mg/kg, female rats, Mean±SD, read-out: AUC(0-t)", "value": "4010 ± 1870", "unit": "ng·h/mL"}, {"measurement": "MRT last", "setting": "female, Sprague-Dawley, rat, plasma, iv, 10 mg/kg, female rats, Mean±SD, read-out: MRT(0-t)", "value": "36.6 ± 22.2", "unit": "min"}, {"measurement": "MRT inf", "setting": "female, Sprague-Dawley, rat, plasma, iv, 10 mg/kg, female rats, Mean±SD, read-out: MRT(0-∞)", "value": "54.6 ± 33", "unit": "min"}, {"measurement": "half-life", "setting": "[2]", "value": "131 ± 15", "unit": "min"}, {"measurement": "half-life", "setting": "female, Sprague-Dawley, rat, plasma, iv, 10 mg/kg, female rats, individual rats 1-3", "value": 146, "unit": "min"}, {"measurement": "Plasma concentrations of CK", "setting": "male rats, 0.5 min, individual rats 1-3, 10 mg/kg", "value": "67670.83 ng/mL and 69233.93 ng/mL"}, {"measurement": "Plasma concentrations of CK", "setting": "male rats, 0.05 h, individual rats 1-3, 10 mg/kg", "value": "11403.43 ng/mL and 18155.87 ng/mL"}, {"measurement": "Plasma concentrations of CK", "setting": "male rats, 8 min, individual rats 1-3, 10 mg/kg", "value": "1214.82 ng/mL and 3002.82 ng/mL and 2609.85 ng/mL"}, {"measurement": "Plasma concentrations of CK", "setting": "male rats, 0.25 h, individual rats 1-3, 10 mg/kg", "value": "664.52 ng/mL and 1307.24 ng/mL"}, {"measurement": "Plasma concentrations of CK", "setting": "male rats, 0.5 h, individual rats 1-3, 10 mg/kg", "value": "214.44 ng/mL and 391.89 ng/mL"}]}
